target: T1, GST-PLK1 (Homo sapiens, UniProt P53350); experiment: Biochemical Characterization Assay: GST-PLK1 kinase HTRF assay with GST-p53 substrate; conditions: full-length GST-PLK1, GST-p53 and ATP, 37° C. for 35 minutes, HTRF signal
T1 construct: Full-length, active GST-PLK1 is purified from Sf9 insect cells; made in house; host or cells: Sf9 insect cells
Description: Biochemical Characterization Assay
Full-length, active GST-PLK1 is purified from Sf9 insect cells, and full-length GST-p53 is purified from E. coli. Anti-phospho p53 antibody is from Cell Signaling Technology. Europium-conjugated anti-rabbit antibody is from PerkinElmer Life and Analytical Sciences. APC-conjugated anti-GST antibody is from Prozyme.
To assay compounds of the invention, two microliters of test compound (0.6 nM-4 mM) in DMSO or plain DMSO for control wells, 38 microliters of 20 mM HEPES pH 7, 50 mM NaCl, 10 mM MgCl2, 0.5 mM TCEP, 0.1 mM sodium orthovanadate, 0.1 mg/mL BSA, and 0.05% Triton X-100 (Kinase Assay Buffer) are added. […] Six microliters of GST-PLK1 (3 ug/mL) in Kinase Assay Buffer are then added and the solution incubated at 37° C. for 35 minutes. Six microliters of solution containing 43 mM EDTA to stop the reaction and a 1:600 dilution of anti-phospho-p53 antibody in 20 mM HEPES pH 7, 50 mM NaCl, and 0.5 mg/mL BSA (Antibody Binding Buffer) are added and the solution incubated at 37° C. for 30 minutes. […] The HTRF signal is read on an Envision reader from PerkinElmer Life and Analytical Sciences.

T1 sequence (P53350 whole entry): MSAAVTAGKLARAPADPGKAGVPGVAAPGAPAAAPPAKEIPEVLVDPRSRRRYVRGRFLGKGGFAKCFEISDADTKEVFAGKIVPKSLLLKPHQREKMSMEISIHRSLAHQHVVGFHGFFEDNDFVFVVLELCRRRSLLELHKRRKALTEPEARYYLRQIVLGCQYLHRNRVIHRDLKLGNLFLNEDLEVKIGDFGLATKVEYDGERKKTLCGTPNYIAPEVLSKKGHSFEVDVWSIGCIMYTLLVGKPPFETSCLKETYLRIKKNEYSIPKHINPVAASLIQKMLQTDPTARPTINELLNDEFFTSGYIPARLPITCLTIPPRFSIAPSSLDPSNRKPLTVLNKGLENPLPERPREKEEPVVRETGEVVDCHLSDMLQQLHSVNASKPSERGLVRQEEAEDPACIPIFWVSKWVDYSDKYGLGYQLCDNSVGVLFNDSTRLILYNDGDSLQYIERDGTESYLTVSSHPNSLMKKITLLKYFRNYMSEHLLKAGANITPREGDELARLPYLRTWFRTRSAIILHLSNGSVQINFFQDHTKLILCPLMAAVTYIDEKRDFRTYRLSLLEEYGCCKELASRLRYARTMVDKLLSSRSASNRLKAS

COc1cc(C(=O)NC2CCN(C)CC2)ccc1Nc1ncc2c(n1)N(C1CCC1)CC(C)C(=O)N2C (racemic) [I-52, (rac)-4-(9-Cyclobutyl-5,7-dimethyl-6-oxo-6,7,8,9-tetrahydro-5H-pyrimido[4,5-b][1,4]diazepin-2-ylamino)-3-methoxy-N-(1-methyl-piperidin-4-yl)-benzamide] and COc1cc(C(=O)NC2CCN(C)CC2)ccc1Nc1ncc2c(n1)N(C1CCCCC1)CC(C)C(=O)N2C (racemic) [I-19, (rac)-4-(9-Cyclohexyl-5,7-dimethyl-6-oxo-6,7,8,9-tetrahydro-5H-pyrimido[4,5-b][1,4]diazepin-2-ylamino)-3-methoxy-N-(1-methyl-piperidin-4-yl)-benzamide] cannot be ordered by IC50: less than 0.5 µM for the first, less than 0.5 µM for the second.

Compared with CC1CN(C2CCCC2)c2nc(Nc3ccc(OCc4ccccc4)cc3)ncc2N(C)C1=O (racemic) [I-75, (rac)-2-(4-Benzyloxy-phenylamino)-9-cyclopentyl-5,7-dimethyl-5,7,8,9-tetrahydro-pyrimido[4,5-b][1,4]diazepin-6-one], COc1ccc(NC(=O)c2ccccc2)cc1Nc1ncc2c(n1)N(C1CCCC1)CC(C)C(=O)N2C (racemic) [I-78, (rac)-N-[3-(9-Cyclopentyl-5,7-dimethyl-6-oxo-6,7,8,9-tetrahydro-5H-pyrimido[4,5-b][1,4]diazepin-2-ylamino)-4-methoxy-phenyl]-benzamide] is lower in IC50: greater than 5 µM for the first, 0.5 to 5 µM for the second.

COc1cc(C(=O)N2CCCCC2)ccc1Nc1ncc2c(n1)N(C1CCCCC1)CCC(=O)N2 [I-32, 9-Cyclohexyl-2-[2-methoxy-4-(piperidine-1-carbonyl)-phenylamino]-5,7,8,9-tetrahydro-pyrimido[4,5-b][1,4]diazepin-6-one] and CCCNC(=O)c1ccc(Nc2ncc3c(n2)N(C2CCCCC2)CCC(=O)N3)c(OC)c1 [I-30, 4-(9-Cyclohexyl-6-oxo-6,7,8,9-tetrahydro-5H-pyrimido[4,5-b][1,4]diazepin-2-ylamino)-3-methoxy-N-propyl-benzamide] cannot be ordered by IC50: greater than 5 µM for the first, greater than 5 µM for the second.

Compared with CC1CN(C2CCCC2)c2nc(Nc3ccc(C(=O)NC4CCCCC4)c(Cl)c3)ncc2N(C)C1=O (racemic) [I-85, (rac)-2-Chloro-N-cyclohexyl-4-(9-cyclopentyl-5,7-dimethyl-6-oxo-6,7,8,9-tetrahydro-5H-pyrimido[4,5-b][1,4]diazepin-2-ylamino)-benzamide], CC1CN(C2CCCC2)c2nc(Nc3ccc(C(=O)NCCCN(C)C)c(Cl)c3)ncc2N(C)C1=O (racemic) [I-83, (rac)-2-Chloro-4-(9-cyclopentyl-5,7-dimethyl-6-oxo-6,7,8,9-tetrahydro-5H-pyrimido[4,5-b][1,4]diazepin-2-ylamino)-N-(3-dimethylamino-propyl)-benzamide] is lower in IC50: greater than 5 µM for the first, 0.5 to 5 µM for the second. The second is the more potent here.

CC1CN(C2CCCC2)c2nc(Nc3ccc4oc(-c5ccncc5)nc4c3)ncc2N(C)C1=O (racemic) [I-76, (rac)-9-Cyclopentyl-5,7-dimethyl-2-(2-pyridin-4-yl-benzooxazol-5-ylamino)-5,7,8,9-tetrahydro-pyrimido[4,5-b][1,4]diazepin-6-one] and CC1CN(C2CCCCC2)c2nc(Nc3ccc4oc(-c5ccncc5)nc4c3)ncc2N(C)C1=O (racemic) [I-26, (rac)-9-Cyclohexyl-5,7-dimethyl-2-(2-pyridin-4-yl-benzooxazol-5-ylamino)-5,7,8,9-tetrahydro-pyrimido[4,5-b][1,4]diazepin-6-one] cannot be ordered by IC50: greater than 5 µM for the first, greater than 5 µM for the second.

CC1CN(C2CCCC2)c2nc(Nc3ccc4oc(-c5cccnc5)nc4c3)ncc2N(C)C1=O (racemic) [I-77, (rac)-9-Cyclopentyl-5,7-dimethyl-2-(2-pyridin-3-yl-benzooxazol-5-ylamino)-5,7,8,9-tetrahydro-pyrimido[4,5-b][1,4]diazepin-6-one] and CC1CN(C2CCCC2)c2nc(Nc3ccc(C(=O)Nc4cccnc4)c(Cl)c3)ncc2N(C)C1=O (racemic) [I-82, (rac)-2-Chloro-4-(9-cyclopentyl-5,7-dimethyl-6-oxo-6,7,8,9-tetrahydro-5H-pyrimido[4,5-b][1,4]diazepin-2-ylamino)-N-pyridin-3-yl-benzamide] cannot be ordered by IC50: greater than 5 µM for the first, greater than 5 µM for the second.

First: COc1ccc(C(=O)NCCCN(C)C)cc1Nc1ncc2c(n1)N(C1CCCC1)CC(C)C(=O)N2C (racemic) [I-73, (rac)-3-(9-Cyclopentyl-5,7-dimethyl-6-oxo-6,7,8,9-tetrahydro-5H-pyrimido[4,5-b][1,4]diazepin-2-ylamino)-N-(3-dimethylamino-propyl)-4-methoxy-benzamide]
Second: CCCC1CN(C2CCCC2)c2nc(Nc3ccc(C(=O)NC4CCN(C)CC4)cc3OC)ncc2N(C)C1=O (racemic) [I-17, (rac)-4-(9-Cyclopentyl-5-methyl-6-oxo-7-propyl-6,7,8,9-tetrahydro-5H-pyrimido[4,5-b][1,4]diazepin-2-ylamino)-3-methoxy-N-(1-methyl-piperidin-4-yl)-benzamide]
The IC50 of the first is lower: less than 0.5 µM for the first, 0.5 to 5 µM for the second. The first is the more potent here.

Compared with CC1CN(C2CCCC2)c2nc(Nc3cccc(C(=O)Nc4ccncc4)c3)ncc2N(C)C1=O (racemic) [I-92, (rac)-3-(9-Cyclopentyl-5,7-dimethyl-6-oxo-6,7,8,9-tetrahydro-5H-pyrimido[4,5-b][1,4]diazepin-2-ylamino)-N-pyridin-4-yl-benzamide], CC1CN(C2CCCC2)c2nc(Nc3ccc(O)c(NC(=O)c4ccncc4)c3)ncc2N(C)C1=O (racemic) [I-48, (rac)-N-[5-(9-Cyclopentyl-5,7-dimethyl-6-oxo-6,7,8,9-tetrahydro-5H-pyrimido[4,5-b][1,4]diazepin-2-ylamino)-2-hydroxy-phenyl]-isonicotinamide] is lower in IC50: greater than 5 µM for the first, 0.5 to 5 µM for the second. The second is the more potent here.

CCC1CN(C2CCCC2)c2nc(Nc3ccc(C(=O)NC4CCN(C)CC4)cc3OC)ncc2N(CC)C1=O (racemic) [I-15, (rac)-4-(9-Cyclopentyl-5,7-diethyl-6-oxo-6,7,8,9-tetrahydro-5H-pyrimido[4,5-b][1,4]diazepin-2-ylamino)-3-methoxy-N-(1-methyl-piperidin-4-yl)-benzamide] and COc1cc(C(=O)NC2CCN(C)CC2)ccc1Nc1ncc2c(n1)N(C1CCCC1)CC(CCO)C(=O)N2C (racemic) [I-49, (rac)-4-[9-Cyclopentyl-7-(2-hydroxy-ethyl)-5-methyl-6-oxo-6,7,8,9-tetrahydro-5H-pyrimido[4,5-b][1,4]diazepin-2-ylamino]-3-methoxy-N-(1-methyl-piperidin-4-yl)-benzamide] fall in the same range of IC50: 0.5 to 5 µM for the first, 0.5 to 5 µM for the second.

First: COc1cc(C(=O)NC2CCN(C)CC2)ccc1Nc1ncc2c(n1)N(C1CCCCC1)CC(C)C(=O)N2 (racemic) [I-18, (rac)-4-(9-Cyclohexyl-7-methyl-6-oxo-6,7,8,9-tetrahydro-5H-pyrimido[4,5-b][1,4]diazepin-2-ylamino)-3-methoxy-N-(1-methyl-piperidin-4-yl)-benzamide]
Second: COc1cc(C(=O)NC2CCN(C)CC2)ccc1Nc1ncc2c(n1)N(C1CCCC1)C(C)CC(=O)N2C (racemic) [I-4, (rac)-4-(9-Cyclopentyl-5,8-dimethyl-6-oxo-6,7,8,9-tetrahydro-5H-pyrimido[4,5-b][1,4]diazepin-2-ylamino)-3-methoxy-N-(1-methyl-piperidin-4-yl)-benzamide]
The IC50 of the first is higher: 0.5 to 5 µM for the first, less than 0.5 µM for the second. The second is the more potent here.

Cc1cc(C(=O)NC2CCN(C)CC2)ccc1Nc1ncc2c(n1)N(C1CCCC1)CC1(CC1)C(=O)N2C [I-61, 4-[(9-Cyclopentyl-6,7,8,9-tetrahydro-5-methyl-6-oxospiro[5H-pyrimido[4,5-b][1,4]diazepine-7,1′-cyclopropan]-2-yl)amino]-3-methyl-N-(1-methyl-4-piperidinyl)benzamide] and COc1cc(C(=O)NC2CCN(C)CC2)ccc1Nc1ncc2c(n1)N(C1CCCC1(C)C)CCC(=O)N2C (racemic) [I-59, (rac)-4-[9-(2,2-Dimethyl-cyclopentyl)-5-methyl-6-oxo-6,7,8,9-tetrahydro-5H-pyrimido[4,5-b][1,4]diazepin-2-ylamino]-3-methoxy-N-(1-methyl-piperidin-4-yl)-benzamide] cannot be ordered by IC50: less than 0.5 µM for the first, less than 0.5 µM for the second.

COc1cc(C(=O)NC2CCN(C)CC2)ccc1Nc1ncc2c(n1)N(c1ccccc1)CC(C)C(=O)N2C (racemic) [I-51, (rac)-4-(5,7-Dimethyl-6-oxo-9-phenyl-6,7,8,9-tetrahydro-5H-pyrimido[4,5-b][1,4]diazepin-2-ylamino)-3-methoxy-N-(1-methyl-piperidin-4-yl)-benzamide] and COc1cc(C(=O)NC2CCN(C)CC2)ccc1Nc1ncc2c(n1)N(Cc1ccccc1)CC(C)C(=O)N2C (racemic) [I-42, (rac)-4-(9-Benzyl-5,7-dimethyl-6-oxo-6,7,8,9-tetrahydro-5H-pyrimido[4,5-b][1,4]diazepin-2-ylamino)-3-methoxy-N-(1-methyl-piperidin-4-yl)-benzamide] fall in the same range of IC50: 0.5 to 5 µM for the first, 0.5 to 5 µM for the second.

For COc1cc(C(=O)NC2CCN(C)CC2)ccc1Nc1ncc2c(n1)N(CCC(C)C)CC(C)C(=O)N2C (racemic) [I-27, (rac)-4-[5,7-Dimethyl-9-(3-methyl-butyl)-6-oxo-6,7,8,9-tetrahydro-5H-pyrimido[4,5-b][1,4]diazepin-2-ylamino]-3-methoxy-N-(1-methyl-piperidin-4-yl)-benzamide], the IC50 was 0.5 to 5 µM.

Reference: patent US7517873B2, “Substituted pyrimidodiazepines” (Hoffman-La Roche Inc., priority 2007, dated 2009)
